Measured values taken from patent publication US20250127906A1, “SMALL-MOLECULE DEGRADERS OF CDK8 AND CDK19” (University of South Carolina, priority 2021, published 2025).

What was measured:
[1] = test system: pS727 STAT1 and total STAT1; assay: pS727 STAT1 and total STAT1 in CT26 tumors in Balb/c mice; format: in vivo; conditions: oral gavage 20 mg/kg, 2, 8 or 24 hrs after dosing
Experimental: CT26 cells were injected subcutaneously into syngeneic Balb/c female mice and allowed to grow to 150˜200 mm^3. Tumor-bearing mice then received PROTACs IA7882 or IA7886 by oral gavage at 20 mg/kg in 30% propylene glycol/70% PEG-400 vehicle. Tumors were collected 2, 8 or 24 hrs after dosing and used to measure protein levels of CDK8, pS727 STAT1 and total STAT1 (by western blotting) and mRNA expression of CCL12, a gene that is inhibited by different CDK8/19 inhibitors in CT26 tumors in vivo (by QPCR).

MV4-11 cells = assay: Long-term growth of MV4-11 cells under continuous treatment; format: cell-based, human; conditions: MV4-11, 300 nM continuous
Experimental: The anti-proliferative effects of a PROTAC and a kinase inhibitor were compared in leukemia cell lines. In the long-term treatment experiment shown in FIG. 11A, Jurkat cells (0.1 million cells) were continuously treated with vehicle control (0.1% DMSO), 300 nM BI-1347 or 300 nM IA7886 for 53 days (each condition in biological triplicates). Every 7-8 days, live cells were counted using BioRAD TC20 Automated Cell Counter with trypan blue staining: 0.1 million live cells were passaged to a new T25 flask to propagate under the same treatment conditions. The survival fraction was calculated by dividing the accumulated number of drug-treated cells with the accumulated number of vehicle-treated cells. […] This sustained inhibition property of PROTAC was also observed in MV4-11, a leukemia cell line highly sensitive to CDK8/19 kinase inhibitors.

CDK8 = CDK8 (Homo sapiens, UniProt P49336); assay: CDK8 degradation in HEK-293 cells (Western blot, normalized by GAPDH); format: cell-based; design: endogenous in cells; host or cells: HEK-293
In short: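 HEK-293 cells were treated for 24 h with or without compound, at 1 μM or 0.3 μM for single-point testing. RIPA lysates were immunoblotted for CDK8, and densitometry gave levels normalized to GAPDH. DC50 is the concentration that reduces CDK8 to half its level in untreated cells.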

CDK19 = CDK19 (Homo sapiens, UniProt Q9BWU1); assay: CDK19 degradation in HEK-293 cells with CRISPR knockout of CCNC; format: cell-based; design: a derivative of HEK-293cells with CRISPR-mediated knockout of CCNC; endogenous in cells; host or cells: HEK-293 with CRISPR knockout of CCNC; conditions: HEK-293 CCNC-knockout cells, 24 hr treatment
Excerpt: This cell line, however, is unique in lacking Cyclin C (CCNC), the binding partner of CDK8/19. To test if the absence of CDK8-bound CCNC was responsible for the loss of IA7843 CDK8-degrading activity, we have tested the effect of IA7843 on a derivative of HEK-293cells with CRISPR-mediated knockout of CCNC.

Chain of CDK8 (P49336 whole entry): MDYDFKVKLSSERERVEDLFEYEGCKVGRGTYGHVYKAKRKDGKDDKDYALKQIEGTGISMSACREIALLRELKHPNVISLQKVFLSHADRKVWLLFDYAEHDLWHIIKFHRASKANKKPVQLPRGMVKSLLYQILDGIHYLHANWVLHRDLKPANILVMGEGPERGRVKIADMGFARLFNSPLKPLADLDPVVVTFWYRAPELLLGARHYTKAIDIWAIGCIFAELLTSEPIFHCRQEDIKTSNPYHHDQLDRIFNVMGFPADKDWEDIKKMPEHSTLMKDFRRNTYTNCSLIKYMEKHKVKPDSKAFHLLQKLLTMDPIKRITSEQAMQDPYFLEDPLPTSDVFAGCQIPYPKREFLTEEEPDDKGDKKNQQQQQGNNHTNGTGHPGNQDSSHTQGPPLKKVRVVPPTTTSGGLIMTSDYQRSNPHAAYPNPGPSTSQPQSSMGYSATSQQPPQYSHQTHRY
Chain of CDK8 (P24863 whole entry partner): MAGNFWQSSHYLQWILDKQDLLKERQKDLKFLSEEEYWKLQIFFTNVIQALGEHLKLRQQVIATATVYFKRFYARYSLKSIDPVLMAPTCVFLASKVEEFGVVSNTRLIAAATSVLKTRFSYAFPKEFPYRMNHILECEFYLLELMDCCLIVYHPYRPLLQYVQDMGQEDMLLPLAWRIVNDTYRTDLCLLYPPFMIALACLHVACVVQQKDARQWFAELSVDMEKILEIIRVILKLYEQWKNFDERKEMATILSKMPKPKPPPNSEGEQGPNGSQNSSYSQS
Chain of CDK19 (Q9BWU1 whole entry): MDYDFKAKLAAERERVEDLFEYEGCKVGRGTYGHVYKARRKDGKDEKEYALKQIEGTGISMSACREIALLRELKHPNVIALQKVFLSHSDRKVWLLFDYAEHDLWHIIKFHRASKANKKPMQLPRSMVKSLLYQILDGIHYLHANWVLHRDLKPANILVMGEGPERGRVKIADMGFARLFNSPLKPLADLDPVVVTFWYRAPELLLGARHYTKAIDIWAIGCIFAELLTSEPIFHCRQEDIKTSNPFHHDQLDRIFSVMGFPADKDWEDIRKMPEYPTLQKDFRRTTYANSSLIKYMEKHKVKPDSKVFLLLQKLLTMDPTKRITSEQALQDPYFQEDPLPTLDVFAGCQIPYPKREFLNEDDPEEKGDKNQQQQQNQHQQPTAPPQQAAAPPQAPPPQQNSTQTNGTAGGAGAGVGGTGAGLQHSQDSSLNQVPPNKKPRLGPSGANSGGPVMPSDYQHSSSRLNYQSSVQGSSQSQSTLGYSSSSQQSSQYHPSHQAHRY

% CDK8 remaining (CDK8; HEK-293 cells, 24 hours, tested at 1 μM): 19%
CDK8 degradation (in words) (CDK8; HEK-293 cells, Western blot): most potent CDK8 degrader in this set
DC50 (CDK8; HEK-293 cells, concentration degrading CDK8 to half of level in untreated cells): 2.8 nM
time at which CDK8 degradation reaches maximum (CDK8; human 293 cells, 100 nM): about 8 hrs
CDK19 degradation (in words) (CDK19): efficiently degraded CDK8 and CDK19
Compound: O=C(CCCNc1cccc2c1C(=O)N(C1CCC(=O)NC1=O)C2=O)NCCCCCCCCCCC(=O)N1CCN(C(=O)Cn2cc(-c3ccc(-c4cncc5ccccc45)cc3)cn2)CC1 (stereo not shown) [IA7886, 4-[[2-(2,6-dioxo-3-piperidyl)-1,3-dioxo-isoindolin-4-yl]amino]-N-[11-[4-[2-[4-[4-(4-isoquinolyl)phenyl]pyrazol-1-yl]acetyl]piperazin-1-yl]-11-oxo-undecyl]butanamide]
pS727 STAT1 and total STAT1 in tumors [1]: decreased in most of the tumors collected 2 hrs or 8 hrs after dosing
growth inhibition over 60 days (MV4-11 cells): much more stable and continued for the entire 60 days
